The source of these data is ChEMBL document CHEMBL4130577, “Platanic acid: A new scaffold for the synthesis of cytotoxic agents” (Eur J Med Chem, 2018).

Calls of active or inactive are those of the source. No cut-off for these calls is given here.

One experiment has as its system NIH3T3. Description: Cytotoxicity against mouse NIH/3T3 cells after 96 hrs by SRB assay. It is filed as cell-based. The conditions noted are these: NIH3T3, 96 h.
The test system of experiment [1] is A2780. Description: Cytotoxicity against human A2780 cells assessed as morphological changes at 8 uM after 24 hrs by acridine orange/propidium iodide staining based fluorescence microscopic method. In kind it is functional, cell-based.
The subject of experiment [2] is A2780. Description: Induction of apoptosis in human A2780 cells assessed as early apoptotic cells at 8 uM after 24 hrs by Annexin V-FITC/propidium iodide staining based flow cytometry (reference value: 3.5%). It is filed as functional. (In general: A flow cytometer gives signals particle by particle.)
The test system of experiment [3] is A2780. Description: Induction of apoptosis in human A2780 cells assessed as increase in caspase-3 activity at 8 uM after 24 hrs by flow cytometry. In kind it is functional, cell-based.
In experiment [4] the test system is A2780. Description: Cell cycle arrest in human A2780 cells at 8 uM after 24 hrs by propidium iodide staining based flow cytometry. In kind it is functional.
For a further experiment, the system named is MCF7. Description: Cytotoxicity against human MCF7 cells after 96 hrs by SRB assay. In kind it is functional, cell-based. The conditions noted are these: MCF7, 96 h. Background: In SRB staining, fixed cells bind dye roughly in proportion to their protein.
In experiment [5] the test system is A2780. Description: Induction of apoptosis in human A2780 cells assessed as live cells at 8 uM after 24 hrs by Annexin V-FITC/propidium iodide staining based flow cytometry (reference value: 88.7%). It is filed as functional.
Experiment [6] concerns A2780. Description: Cytotoxicity against human A2780 cells after 96 hrs by SRB assay. It is filed as functional, cell-based. The conditions noted are these: A2780, 96 h.
In a further experiment the test system is HT-29. Description: cells. The note with it: Homo sapiens, HT-29, 96 h.
A further experiment deals with 518A2. Description: Cytotoxicity against human 518A2 cells after 96 hrs by SRB assay. It is filed as functional, cell-based. The note with it: 518A2, 96 h.
Experiment [7] has as its system A2780. Description: Induction of apoptosis in human A2780 cells assessed as late apoptotic cells at 8 uM after 24 hrs by Annexin V-FITC/propidium iodide staining based flow cytometry (reference value: 6.6%). It is filed as functional.
The subject of the next experiment is A549. Description: Cytotoxicity against human A549 cells after 96 hrs by SRB assay. The conditions noted are these: A549, 96 h. In kind it is functional, cell-based.
Experiment [8] deals with A2780. Description: Induction of apoptosis in human A2780 cells assessed as necrotic cells at 8 uM after 24 hrs by Annexin V-FITC/propidium iodide staining based flow cytometry (reference value: 1.1%). In kind it is functional.
Experiment [9] deals with A2780. Description: Induction of apoptosis in human A2780 cells assessed as increase in caspase-3 activity at 5 uM after 24 hrs by flow cytometry. In kind it is functional, cell-based.
Experiment [10] has as its system A2780. Description: Induction of apoptosis in human A2780 cells assessed as live cells at 5 uM after 24 hrs by Annexin V-FITC/propidium iodide staining based flow cytometry (reference value: 88.7%). In kind it is functional.
For experiment [11], the system named is A2780. Description: Cell cycle arrest in human A2780 cells at 5 uM after 24 hrs by propidium iodide staining based flow cytometry. It is filed as functional.
For experiment [12], the system named is A2780. Description: Induction of apoptosis in human A2780 cells assessed as early apoptotic cells at 5 uM after 24 hrs by Annexin V-FITC/propidium iodide staining based flow cytometry (reference value: 3.5%). It is filed as functional.
In experiment [13] the test system is A2780. Description: Cytotoxicity against human A2780 cells assessed as morphological changes at 5 uM after 24 hrs by acridine orange/propidium iodide staining based fluorescence microscopic method. In kind it is functional, cell-based.
In experiment [14] the test system is A2780. Description: Induction of apoptosis in human A2780 cells assessed as late apoptotic cells at 5 uM after 24 hrs by Annexin V-FITC/propidium iodide staining based flow cytometry (reference value: 6.6%). In kind it is functional.
Experiment [15] has as its system A2780. Description: Induction of apoptosis in human A2780 cells assessed as necrotic cells at 5 uM after 24 hrs by Annexin V-FITC/propidium iodide staining based flow cytometry (reference value: 1.1%). It is filed as functional.

Description for HT-29: Cytotoxicity against human HT-29 cells after 96 hrs by SRB assay

Take `COC(=O)[C@]12CC[C@@H]([C@@H](C)N)[C@@H]1[C@H]1CC[C@@H]3[C@@]4(C)CC[C@H](OC(C)=O)C(C)(C)[C@@H]4CC[C@@]3(C)[C@]1(C)CC2`: the EC50 – broadly, the concentration at which the effect is half-maximal – was 5.6 µM with NIH3T3; 5.1 µM with MCF7; 4.7 µM in the experiment on A2780 [6]; 6.3 µM in the experiment with HT-29; 4.1 µM in the experiment on 518A2; 5.3 µM with A549. Also, the result in the experiment with A2780 [1] and in the experiment on A2780 [3] was Active. Besides, the Activity was determined as 23.7% in the experiment on A2780 [2], 58.1% with A2780 [5], 16.6% in the experiment on A2780 [7] and 1.4% in the experiment with A2780 [8]. Also, the result in the experiment with A2780 [4] was inactive.
Regarding `CC(=O)[C@@H]1CC[C@]2(C(=O)OCc3ccccc3)CC[C@]3(C)[C@H](CC[C@@H]4[C@@]5(C)CC[C@@H](N)C(C)(C)[C@@H]5CC[C@]43C)[C@@H]12`, the EC50 is 2.5 µM in the experiment on NIH3T3; 1.9 µM with MCF7; 2.8 µM in the experiment on A2780 [6]; 2.4 µM in the experiment on HT-29; 2.3 µM with 518A2; 3.6 µM with A549.
As for `CC(=O)[C@@H]1CC[C@]2(C(=O)NCCN3CCCC3)CC[C@]3(C)[C@H](CC[C@@H]4[C@@]5(C)CC[C@H](O)C(C)(C)[C@@H]5CC[C@]43C)[C@@H]12`, the EC50 was determined as 2.8 µM in the experiment on NIH3T3; 2.1 µM in the experiment on MCF7; 2.2 µM in the experiment with A2780 [6]; 2.8 µM with HT-29; 2.5 µM in the experiment with 518A2; 2.3 µM in the experiment with A549. For the same compound, the result with A2780 [9] and with A2780 [13] was Active. In addition, the Activity with A2780 [10] amounted to 41.3%; in the experiment on A2780 [12] it was 7.1%; in the experiment with A2780 [14], 47.4%; with A2780 [15], 4.2%. Moreover, in the experiment with A2780 [11], the result was inactive.
In the case of `CC(=O)O[C@H]1CC[C@]2(C)[C@H]3CC[C@@H]4[C@H]5[C@H](/C(C)=N\O)CC[C@]5(C(=O)OCc5ccccc5)CC[C@@]4(C)[C@]3(C)CC[C@H]2C1(C)C`, the EC50 in the experiment with NIH3T3 turned out to be 14 µM; in the experiment with MCF7 it was 7.3 µM; in the experiment on A2780 [6], 9.9 µM; in the experiment with HT-29, 20.1 µM; in the experiment on 518A2 it was 16.5 µM; in the experiment with A549, 11.2 µM.
On to `C[C@@H](N)[C@@H]1CC[C@]2(CO)CC[C@]3(C)[C@H](CC[C@@H]4[C@@]5(C)CC[C@H](O)C(C)(C)[C@@H]5CC[C@]43C)[C@@H]12`, for which the EC50 was 16 µM in the experiment on NIH3T3; above 30 µM in the experiment with MCF7; above 30 µM with A2780 [6]; 20.3 µM with HT-29; 23.7 µM with 518A2; above 30 µM in the experiment on A549.
`CC(=O)O[C@H]1CC[C@]2(C)[C@H]3CC[C@@H]4[C@H]5[C@H](C(C)=O)CC[C@]5(C(=O)NCCN5CCCC5)CC[C@@]4(C)[C@]3(C)CC[C@H]2C1(C)C`: the EC50 was determined as 0.6 µM in the experiment with NIH3T3; 2 µM in the experiment on MCF7; 4.3 µM in the experiment on A2780 [6]; 2.2 µM in the experiment on HT-29; 3.3 µM with 518A2; 2.9 µM in the experiment with A549.
As for `CC(=O)O[C@H]1CC[C@]2(C)[C@H]3CC[C@@H]4[C@H]5[C@H]([C@@H](C)N)CC[C@]5(C(=O)O)CC[C@@]4(C)[C@]3(C)CC[C@H]2C1(C)C`, the EC50 in the experiment on NIH3T3 was 27.2 µM; with MCF7, above 30 µM; in the experiment on A2780 [6] it was above 30 µM; in the experiment on HT-29, 20.7 µM; in the experiment on 518A2 it was 23.2 µM; in the experiment with A549, above 30 µM.
Take `COC(=O)[C@]12CC[C@@H]([C@H](C)N)[C@@H]1[C@H]1CC[C@@H]3[C@@]4(C)CC[C@H](OC(C)=O)C(C)(C)[C@@H]4CC[C@@]3(C)[C@]1(C)CC2`: the EC50 in the experiment on NIH3T3 is 4.4 µM; in the experiment with MCF7, 4.6 µM; with A2780 [6], 6 µM; with HT-29, 2 µM; with 518A2, 6.3 µM; in the experiment with A549, 6.6 µM.
With `C[C@@H](N)[C@@H]1CC[C@]2(C(=O)OCc3ccccc3)CC[C@]3(C)[C@H](CC[C@@H]4[C@@]5(C)CC[C@H](O)C(C)(C)[C@@H]5CC[C@]43C)[C@@H]12`, the EC50 turned out to be 7.3 µM in the experiment on NIH3T3; 5.6 µM with MCF7; 7.5 µM with A2780 [6]; 5 µM in the experiment with HT-29; 7.5 µM with 518A2; 10.1 µM in the experiment with A549.
In the case of `COC(=O)[C@]12CC[C@@H]([C@H](C)NC(C)=O)[C@@H]1[C@H]1CC[C@@H]3[C@@]4(C)CC[C@H](OC(C)=O)C(C)(C)[C@@H]4CC[C@@]3(C)[C@]1(C)CC2`, the EC50 in the experiment with NIH3T3 was 19.4 µM; in the experiment on MCF7, 17.9 µM; in the experiment with A2780 [6] it was 25.3 µM; with HT-29, 24.7 µM; with 518A2 it was 30.1 µM; in the experiment on A549, 25.5 µM.
For `CC(=O)O[C@H]1CC[C@]2(C)[C@H]3CC[C@@H]4[C@H]5[C@H]([C@@H](C)N)CC[C@]5(C(=O)OCc5ccccc5)CC[C@@]4(C)[C@]3(C)CC[C@H]2C1(C)C`, the EC50 with NIH3T3 was found to be 4.1 µM; with MCF7, 3 µM; with A2780 [6], 4 µM; with HT-29 it was 2.3 µM; in the experiment on 518A2, 2.2 µM; with A549 it was 3.1 µM.
`CC(=O)OC[C@]12CC[C@@H]([C@@H](C)N)[C@@H]1[C@H]1CC[C@@H]3[C@@]4(C)CC[C@H](OC(C)=O)C(C)(C)[C@@H]4CC[C@@]3(C)[C@]1(C)CC2`: the EC50 in the experiment with NIH3T3 amounted to 4 µM; with MCF7 it was 2.1 µM; in the experiment with A2780 [6], 2.5 µM; with HT-29, 1.2 µM; in the experiment with 518A2 it was 2.2 µM; in the experiment on A549, 2.3 µM.
Turning to `COC(=O)[C@]12CC[C@@H](/C(C)=N/O)[C@@H]1[C@H]1CC[C@@H]3[C@@]4(C)CC[C@H](OC(C)=O)C(C)(C)[C@@H]4CC[C@@]3(C)[C@]1(C)CC2`, the EC50 was found to be 14 µM in the experiment with NIH3T3; 12.4 µM in the experiment with MCF7; 12.2 µM in the experiment on A2780 [6]; 14.4 µM in the experiment on HT-29; 7.8 µM in the experiment on 518A2; 8.2 µM in the experiment on A549.
